Results: patent US20110207726A1, “Inhibitors of Human Cathepsin L, Cathepsin B, and Cathepsin S” (The Trustees of the University of Pennsylvania, priority 2008, published 2011)
Read-outs that look alike come from different tables or passages of the source.

Experiments:
[1] = target: T1, Human liver cathepsin B (Homo sapiens, UniProt P07858); assay: Cathepsin B assay, IC50 determination; format: biochemical
T1 construct: Human liver cathepsin B (Calbiochem 219362, 65 ng/mL); purchased Calbiochem 219362; host or cells: human liver
Method in brief: (§1)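 Spleen cathepsin S (40 ng/mL) with 15 microM Z-Phe-Arg-AMC and liver cathepsin B (65 ng/mL) with 15 microM Z-Arg-Arg-AMC, in 20 mM sodium acetate, 1 mM EDTA, 5 mM cysteine, pH 5.5. AMC fluorescence release monitored; IC50 measured in triplicate.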

[2] = target: T2, Human spleen cathepsin S (Homo sapiens, UniProt P25774); assay: Cathepsin S assay, IC50 determination; format: biochemical
T2 construct: Human spleen cathepsin S (Calbiochem 219344, 40 ng/mL); purchased Calbiochem 219344; host or cells: human spleen
Method in brief: as §1

[3] = target: T3, human cathepsin K (Homo sapiens, UniProt P43235); assay: Selectivity assay, cathepsin K; format: biochemical
T3 construct: purchased Calbiochem 342001
T3 sequence (P43235 115-329): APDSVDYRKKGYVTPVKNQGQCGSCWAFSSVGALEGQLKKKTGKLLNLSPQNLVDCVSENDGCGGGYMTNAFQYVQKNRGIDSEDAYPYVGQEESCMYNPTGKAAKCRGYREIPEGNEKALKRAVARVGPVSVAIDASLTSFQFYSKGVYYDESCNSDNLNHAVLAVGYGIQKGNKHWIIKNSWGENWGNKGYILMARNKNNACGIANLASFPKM
Description: (§2) Compound No. 1 was assayed for inhibition against papain and cathepsins B, G, K, S, and V. Papain from Carica papaya (Calbiochem 5125, 11 ng/mL), human cathepsin K (Calbiochem 342001, 35 ng/mL), human spleen cathepsin S (Calbiochem 219344, 40 ng/mL), and human cathepsin V (Calbiochem 219467, 39 ng/ml) were assayed using Z-Phe-Arg-AMC substrate at 20 μM, 20 μM, 15 μM, and 1 μM, respectively. Human liver cathepsin B (Calbiochem 219362, 65 ng/mL) was assayed using 15 μM Z-Arg-Arg-AMC substrate (Bachem I-1135). Human neutrophil cathepsin G (Calbiochem 219373, 4.2 μg/mL) was assayed using 15 μM Suc-Ala-Ala-Pro-Phe-AMC substrate (Sigma S9761). All reactions were performed in 20 mM sodium acetate buffer containing 5 mM cysteine and 1 mM EDTA, pH 5.5. Reaction progress was monitored using the Envision microplate reader. IC50 values were measured in triplicate.

[4] = target: T4, Human neutrophil cathepsin G (Homo sapiens, UniProt P08311); assay: Selectivity assay, cathepsin G; format: biochemical; conditions: for IC50: Cathepsin G, no preincubation
T4 construct: Human neutrophil cathepsin G (Calbiochem 219373, 4.2 μg/mL); purchased Calbiochem 219373; host or cells: human neutrophils
T4 sequence (P08311 21-243 limits assumed): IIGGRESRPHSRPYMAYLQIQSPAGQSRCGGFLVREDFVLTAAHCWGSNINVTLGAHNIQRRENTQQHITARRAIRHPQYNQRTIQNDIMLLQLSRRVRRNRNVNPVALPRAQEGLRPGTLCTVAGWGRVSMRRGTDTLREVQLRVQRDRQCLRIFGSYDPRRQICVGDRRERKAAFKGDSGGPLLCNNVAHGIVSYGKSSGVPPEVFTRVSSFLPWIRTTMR
Description: as §2

[5] = system: Plasmodium falciparum; assay: Malaria assay, in vitro propagation; format: cell-based; conditions: read-out: IC50 against Plasmodium falciparum
Description: Eight two-fold serial dilutions of Compound No. 1 in RPMI 1640 media (Invitrogen 1 1 875) containing L-Glutamine, 50 mg/L hypoxanthine, 6 g/L HEPES, 0.5% Albumax 11 bovine serum (Invitrogen 11021), 0.225% sodium bicarbonate, and 1 pgIrnL gentamicin were performed in Corning 3704 microplates. […] In addition, 30 μL normal red blood cells and 30 μL infected red blood cells were added to two control columns containing 10 μL media. The plates were incubated at 37° C. in a 92% humidity chamber with 5% CO2, 5% O2, and 90% N2 for 48 hours to allow for two cycles of red blood cell rupture and invasion to take place. Forty μL BrightGlo™ (Promega E2610) were added to each well and centrifuged. After 5 minutes, luminescence was measured using the Envision microplate reader.

[6] = system: Leishmania major promastigotes; assay: Leishmaniasis assay; format: cell-based; conditions: read-out: IC50 against Leishmania major promastigotes
Description: Five thousand Leishmania major promastigotes were plated per well in a 384-well microtiter plate in a 20 μL volume of promastigote growth medium. Promastigotes were treated with a concentration range from 0 μM to 50 μM of Compound No. 1 for 44 hrs. Five pL Cell-Titer-Blue™ were added per well and incubated for 4 hrs. Relative fluorescence units (A560/A590) were captured on a SpectraMax M5 microtiter plate reader. DMSO concentrations were held constant at 0.5%.

[7] = target: human cathepsin L (Homo sapiens, UniProt P07711); assay: Nonlinear regression of transient kinetics (data fitting)
Chain of human cathepsin L (P07711 114-288 limits assumed): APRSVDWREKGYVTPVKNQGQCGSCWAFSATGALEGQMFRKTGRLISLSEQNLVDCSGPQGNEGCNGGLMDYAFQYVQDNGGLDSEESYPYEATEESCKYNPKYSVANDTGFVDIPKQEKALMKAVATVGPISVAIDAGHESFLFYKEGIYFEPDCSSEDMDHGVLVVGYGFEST
Chain of human cathepsin L (P07711 292-333 limits assumed): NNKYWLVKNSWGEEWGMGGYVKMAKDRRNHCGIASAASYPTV

T2 sequence (P25774 115-331): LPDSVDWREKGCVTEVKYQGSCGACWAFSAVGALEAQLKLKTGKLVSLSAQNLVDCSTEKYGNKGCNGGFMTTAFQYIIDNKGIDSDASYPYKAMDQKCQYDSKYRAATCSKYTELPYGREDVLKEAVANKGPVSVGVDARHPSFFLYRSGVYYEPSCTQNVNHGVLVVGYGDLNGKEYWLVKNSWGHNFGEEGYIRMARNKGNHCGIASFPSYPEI

CCc1ccccc1NC(=O)CSC(=O)NNC(=O)[C@H](Cc1c[nH]c2ccccc12)NC(=O)OC(C)(C)C [Compound No. 1]
Selectivity Index @ 10 min ([1]; Cathepsin B vs cathepsin L, 10 min): 48
Selectivity Index @ 30 min ([1]; Cathepsin B vs cathepsin L, 30 min): 40
Selectivity Index @ 60 min ([1]; Cathepsin B vs cathepsin L, 60 min): 45
Selectivity Index @ 90 min ([1]; Cathepsin B vs cathepsin L, 90 min): 50
Selectivity Index ([1]; Cathepsin B vs cathepsin L, over 10-90 min): 40-50
IC50 ([1]; Cathepsin B, no preincubation, 30 min, read-out: IC50 @ 30 min): 2.98 ± 0.295 µM
IC50 ([1]; Cathepsin B, no preincubation, 60 min, read-out: IC50 @ 60 min): 2.53 ± 0.073 µM
IC50 ([1]; Cathepsin B, no preincubation, 90 min, read-out: IC50 @ 90 min): 2.51 ± 0.139 µM
IC50 ([1]; IC50 @ 10 min, Cathepsin B, human liver, no preincubation, 10 min): 7.49 ± 0.693 µM
IC50 ([1]; Table 1, read-out: IC50 Cat B): 4.45 µM
Selectivity Index @ 10 min ([2]; Cathepsin S vs cathepsin L, 10 min): 7
Selectivity Index @ 30 min ([2]; Cathepsin S vs cathepsin L, 30 min): 10
Selectivity Index @ 60 min ([2]; Cathepsin S vs cathepsin L, 60 min): 13
Selectivity Index @ 90 min ([2]; Cathepsin S vs cathepsin L, 90 min): 14
Selectivity Index ([2]; Cathepsin S vs cathepsin L, over 10-90 min): 7-14
IC50 ([2]; Cathepsin S, no preincubation, 30 min, read-out: IC50 @ 30 min): 0.745 ± 0.01 µM
IC50 ([2]; Cathepsin S, no preincubation, 60 min, read-out: IC50 @ 60 min): 0.724 ± 0.011 µM
IC50 ([2]; Cathepsin S, no preincubation, 90 min, read-out: IC50 @ 90 min): 0.721 ± 0.029 µM
IC50 ([2]; IC50 @ 10 min, Cathepsin S, human spleen, no preincubation, 10 min): 1.11 ± 0.134 µM
IC50 ([2]; Table 1, read-out: IC50 Cat S): 0.96 µM
IC50 [3]: 17.6 ± 1.04 µM
Selectivity Index @ 10 min ([3]; Cathepsin K vs cathepsin L, 10 min): 114
Selectivity Index @ 30 min ([3]; Cathepsin K vs cathepsin L, 30 min): 113
Selectivity Index @ 60 min ([3]; Cathepsin K vs cathepsin L, 60 min): 151
Selectivity Index @ 90 min ([3]; Cathepsin K vs cathepsin L, 90 min): 137
Selectivity Index ([3]; Cathepsin K vs cathepsin L, over 10-90 min): 113-151
IC50 ([3]; Cathepsin K, no preincubation, 30 min, read-out: IC50 @ 30 min): 8.46 ± 0.366 µM
IC50 ([3]; Cathepsin K, no preincubation, 60 min, read-out: IC50 @ 60 min): 8.44 ± 0.14 µM
IC50 ([3]; Cathepsin K, no preincubation, 90 min, read-out: IC50 @ 90 min): 6.857 ± 0.063 µM
inhibitory activity against cathepsin G (in words) [4]: no inhibitory activity
IC50 ([4]; human neutrophil, 10 min): > 50 µM
IC50 ([4]; 30 min, read-out: IC50 @ 30 min): > 50 µM
IC50 ([4]; 60 min, read-out: IC50 @ 60 min): > 50 µM
IC50 ([4]; 90 min, read-out: IC50 @ 90 min): > 50 µM
IC50 [5]: 15.4 ± 0.6 µM
IC50 [6]: 12.5 ± 0.6 µM
Ki [7]: 0.00089 µM
koff [7]: 2.2e-05 s⁻¹
kon [7]: 24000 M⁻¹ s⁻¹
